From publication PMC10059712, “Structure Elucidation of Two Intriguing Neo-Debromoaplysiatoxin Derivatives from Marine Cyanobacterium Lyngbya sp. Showing Strong Inhibition of Kv1.5 Potassium Channel and Differential Cytotoxicity” (Molecules, 2023)

Target: T1, Kv1.5 K+ channel (Homo sapiens, UniProt P22460)
T1 construct: gene KCNA5; human Kv1.5 stably expressed in LTK cells (LTK-Kv1.5)
Test: patch clamp of Kv1.[…] currents in LTK-Kv1.[…] cells
Type: cell-based

T1 sequence (P22460 whole entry): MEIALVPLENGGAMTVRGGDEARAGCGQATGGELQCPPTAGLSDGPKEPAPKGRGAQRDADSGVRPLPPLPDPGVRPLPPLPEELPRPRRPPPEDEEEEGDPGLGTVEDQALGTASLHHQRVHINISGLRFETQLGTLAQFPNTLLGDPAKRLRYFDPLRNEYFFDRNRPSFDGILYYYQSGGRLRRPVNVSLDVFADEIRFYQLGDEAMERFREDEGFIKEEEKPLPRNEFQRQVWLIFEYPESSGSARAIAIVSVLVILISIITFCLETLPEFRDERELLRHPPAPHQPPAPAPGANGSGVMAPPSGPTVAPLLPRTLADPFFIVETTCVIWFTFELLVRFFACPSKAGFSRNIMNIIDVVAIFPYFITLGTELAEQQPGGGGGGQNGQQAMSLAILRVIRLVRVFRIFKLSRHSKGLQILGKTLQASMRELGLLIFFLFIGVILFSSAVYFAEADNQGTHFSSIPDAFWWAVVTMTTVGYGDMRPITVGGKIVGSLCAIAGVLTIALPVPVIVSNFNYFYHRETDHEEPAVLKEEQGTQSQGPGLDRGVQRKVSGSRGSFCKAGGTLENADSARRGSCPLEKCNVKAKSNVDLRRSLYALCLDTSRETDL

| Compound | IC50 |
| --- | --- |
| CO[C@@H](CC[C@H](C)[C@H]1O[C@]23C[C@H](OC(=O)C[C@H]([C@@H](C)O)OC(=O)CC(=O)C(C)(CC2(C)C)OO3)[C@@H]1C)c1cccc(O)c1 [compound 2, neo-debromoaplysiatoxin J] | 1.64 ± 0.15 µM |
| CO[C@@H](CC[C@H](C)[C@H]1O[C@]2(O)[C@H]3[C@@H](OC(=O)C[C@]3(O)[C@H](C)CC2(C)C)[C@@H]1C)c1cccc(O)c1 [compound 1, neo-debromoaplysiatoxin I] | 2.59 ± 0.37 µM |
